In patent US7538103B2, “Compounds for the treatment of hepatitis C” (Bristol-Myers Squibb Company, priority 2007, dated 2009) one finds EC50 and IC50 data, which are given here for 10 compounds.

The test system of one assay is HCV replicon cells. As to the kind of experiment: HCV replicon FRET assay. In kind it is cell-based. To be noted: Hepatitis C virus. The source says:
FRET Assay Preparation. To perform the HCV FRET screening assay, 96-well cell culture plates were used. The FRET peptide (Anaspec, Inc.) (Taliani et al., Anal. Biochem. 1996, 240, 60-67) contains a fluorescence donor, EDANS, near one end of the peptide and an acceptor, DABCYL, near the other end. The fluorescence of the peptide is quenched by […] resonance energy transfer (RET) between the donor and the acceptor, but as the NS3 protease cleaves the peptide the products are released from RET quenching and the fluorescence of the donor becomes apparent. The assay reagent was made as follows: 5X cell Luciferase cell culture lysis reagent from Promega (#E153A) diluted to 1× with dH2O, NaCl added to 150 mM final, the FRET peptide diluted to 20 μM final from a 2 mM stock.
To prepare plates, HCV replicon cells, with or without a Renilla luciferase reporter gene, were trypsinized and placed into each well of a 96-well plate with titrated test compounds added in columns 3 through 12; columns 1 and 2 contained a control compound (HCV protease inhibitor), and the bottom row contained cells without compound. The plates were then placed in a CO2 incubator at 37° C.
Assays. Subsequent to addition of the test compounds described above (FRET Assay Preparation), at various times the plate was removed and Alamar blue solution (Trek Diagnostics, #00-100) was added per well as a measure of cellular toxicity. After reading in a Cytoflour 4000 instrument (PE Biosystems), plates were rinsed with PBS and then used for FRET assay by the addition of 30 ul of the FRET peptide assay reagent described above (FRET Assay Preparation) per well. The plate was then placed into the Cytoflour 4000 instrument which had been set to 340 excite/490 emission, automatic mode for 20 cycles and the plate read in a kinetic mode. Typically, the signal to noise using an endpoint analysis after the reads was at least three-fold. Alternatively, after Alamar blue reading, plates were rinsed with PBS, 50 ul of DMEM (high glucose) without phenol red was added and plates were then used for luciferase assay using the Promega Dual-Glo Luciferase Assay System.
Compound analysis was determined by quantification of the relative HCV replicon inhibition and the relative cytotoxicity values. To calculate cytoxicity values, the average Alamar Blue fluorescence signals from the control wells were set as 100% non-toxic. The individual signals in each of the compound test wells were then divided by the average control signal and multiplied by 100% to determine […]. To calculate the HCV replicon inhibition values, an average background value was obtained from the two wells containing the highest amount of HCV protease inhibitor at the end of the assay period. These numbers were similar to those obtained from naïve Huh-7 cells.
The background numbers were then subtracted from the average signal obtained from the control wells and this number was used as 100% activity. The individual signals in each of the compound test wells were then divided by the averaged control values after background subtraction and multiplied by 100% to determine percent activity. EC50 values for a protease inhibitor titration were calculated as the concentration which caused a 50% reduction in FRET or luciferase activity. The two numbers generated for the compound plate, percent cytoxicity and percent activity were used to determine compounds of interest for further analysis.

A further assay concerns the target T1, HCV NS5B (Hepatitis C virus genotype 1b, UniProt Q9WMX2).
T1 construct: The protein was expressed with an 18 amino acid C-terminal truncation to enhance the solubility; made in house; host or cells: E. coli BL21(DE3)
As to the kind of experiment: Modified HCV NS5B RdRp enzyme assay (preincubation protocol). In kind it is biochemical. As to the method: HCV NS5B RdRp cloning, expression, and purification. The cDNA encoding the NS5B protein of HCV, genotype 1b, was cloned into the pET21a expression vector. The protein was expressed with an 18 amino acid C-terminal truncation to enhance the solubility. The E. coli competent cell line BL21(DE3) was used for expression of the protein. Cultures were grown at 37° C. for ˜4 hours until the cultures reached an optical density of 2.0 at 600 nm. The cultures were cooled to 20° C. and induced with 1 mM IPTG. Fresh ampicillin was added to a final concentration of 50 μg/ml and the cells were grown overnight at 20° C.
Cell pellets (3 L) were lysed for purification to yield 15-24 mgs of purified NS5B. The lysis buffer consisted of 20 mM Tris-HCl, pH 7.4, 500 mM NaCl, 0.5% triton X-100, 1 mM DTT, 1 mM EDTA, 20% glycerol, 0.5 mg/ml lysozyme, 10 mM MgCl2, 15 ug/ml deoxyribonuclease I, and Complete TM protease inhibitor tablets (Roche). After addition of the lysis buffer, frozen cell pellets were resuspended using a tissue homogenizer. To reduce the viscosity of the sample, aliquots of the lysate were sonicated on ice using a microtip attached to a Branson sonicator. The sonicated lysate was centrifuged at 100,000×g for 1 hr at 4° C. and filtered through a 0.2 μm filter unit (Corning).
The protein was purified using three sequential chromatography steps: Heparin sepharose CL-6B, polyU sepharose 4B, and Hitrap SP sepharose (Pharmacia). The chromatography buffers were identical to the lysis buffer but contained no lysozyme, deoxyribonuclease I, MgCl2 or protease inhibitor and the NaCl concentration of the buffer was adjusted according to the requirements for charging the protein onto the column. Each column was eluted with a NaCl gradient which varied in length from 5-50 column volumes depending on the column type. After the final chromatography step, the resulting purity of the enzyme is >90% based on SDS-PAGE analysis. The enzyme was aliquoted and stored at −80° C.
Standard HCV NS5B RdRp enzyme assay. HCV RdRp genotype 1b assays were run in a final volume of 60 μl in 96 well plates (Costar 3912). The assay buffer is composed of 20 mM Hepes, pH 7.5, 2.5 mM KCl, 2.5 mM MgCl2, 1 mM DTT, 1.6 U RNAse inhibitor (Promega N2515), 0.1 mg/ml BSA (Promega R3961), and 2% glycerol. All compounds were serially diluted (3-fold) in DMSO and diluted further in water such that the final concentration of DMSO in the assay was 2%. HCV RdRp genotype 1b enzyme was used at a final concentration of 28 nM. A polyA template was used at 6 nM, and a biotinylated oligo-dT12 primer was used at 180 nM final concentration. Template was obtained commercially (Amersham 27-4110). Biotinylated primer was prepared by Sigma Genosys. 3H-UTP was used at 0.6 μCi (0.29 μM total UTP). Reactions were initiated by the addition of enzyme, incubated at 30° C. for 60 min, and stopped by adding 25 μl of 50 mM EDTA containing SPA beads (4 μg/μl, Amersham RPNQ 0007). Plates were read on a Packard Top Count NXT after >1 hr incubation at room temperature.
Modified HCV NS5B RdRp enzyme assay. A modified enzyme assay was performed essentially as described for the standard enzyme assay except for the following: The biotinylated oligo dT12 primer was precaptured on streptavidin-coated SPA beads by mixing primer and beads in assay buffer and incubating at room temperature for one hour. Unbound primer was removed after centrifugation. The primer-bound beads were resuspended in 20 mM Hepes buffer, pH 7.5 and used in the assay at final concentrations of 20 nM primer and 0.67 μg/μl beads. Order of addition in the assay: enzyme (14 nM) was added to diluted compound followed by the addition of a mixture of template (0.2 nM), 3H-UTP (0.6 μCi, 0.29 μM), and primer-bound beads, to initiate the reaction; concentrations given are final. Reactions were allowed to proceed for 4 hours at 30° C.
IC50 values for compounds were determined using seven different [I]. […]

Where [1] appears, read: determined using the FRET assay, read-out: EC50.
The mark [2] stands for this setting: determined using the preincubation protocol, read-out: IC50.

Like-named read-outs stand apart in the source and are kept apart here.

T1 sequence (Q9WMX2 2420-2992): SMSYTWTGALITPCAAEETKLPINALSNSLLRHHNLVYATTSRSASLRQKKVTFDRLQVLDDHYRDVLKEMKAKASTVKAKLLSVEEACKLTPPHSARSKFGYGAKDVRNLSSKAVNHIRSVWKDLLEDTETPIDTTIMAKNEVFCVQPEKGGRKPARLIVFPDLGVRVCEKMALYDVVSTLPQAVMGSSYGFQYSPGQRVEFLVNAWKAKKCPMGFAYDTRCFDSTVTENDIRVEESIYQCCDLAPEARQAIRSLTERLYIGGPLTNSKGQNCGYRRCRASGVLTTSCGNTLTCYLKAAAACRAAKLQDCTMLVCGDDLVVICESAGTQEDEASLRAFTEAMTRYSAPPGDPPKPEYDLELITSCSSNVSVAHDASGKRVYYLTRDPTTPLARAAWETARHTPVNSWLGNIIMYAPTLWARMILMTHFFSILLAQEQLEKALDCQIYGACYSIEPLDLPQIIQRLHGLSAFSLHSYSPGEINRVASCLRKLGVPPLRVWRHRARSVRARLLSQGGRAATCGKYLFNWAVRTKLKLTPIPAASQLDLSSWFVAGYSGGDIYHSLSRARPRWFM

What is called EC50 is the concentration needed to bring the measured effect to its halfway point. By IC50 is commonly meant the concentration that gives 50% inhibition. `COc1ccc2c(c1)C1CC1(CO)Cn1c-2c(C2CCCCC2)c2ccc(C(=O)NS(=O)(=O)N(C)C)cc21` (centres unmarked): the EC50 with HCV replicon cells (setting [1]) lay in the range of 1 to 500 nM. The IC50 on HCV NS5B (setting [2]) lay in the range of 1 to 500 nM.
`COc1ccc2c(c1)C1CC1(COC(=O)N1CCOCC1)Cn1c-2c(C2CCCCC2)c2ccc(C(=O)NS(=O)(=O)N(C)C)cc21` (centres unmarked): in the assay with HCV replicon cells (setting [1]), the EC50 was in the range of 1 to 500 nM. Moreover, the half-inhibitory concentration (IC50) at HCV NS5B (setting [2]) was 1 to 500 nM.
For `CCN(CC12CC1c1cc(OC)ccc1-c1c(C3CCCCC3)c3ccc(C(=O)NS(=O)(=O)N(C)C)cc3n1C2)C(C)=O` (centres unmarked), the 50% effective concentration (EC50) in the assay with HCV replicon cells (setting [1]) lay within 1 to 500 nM. In addition, the IC50 on HCV NS5B (setting [2]) is 1 to 500 nM.
For the compound `COc1ccc2c(c1)C1CC1(CN1CCOCC1)Cn1c-2c(C2CCCCC2)c2ccc(C(=O)NS(=O)(=O)N(C)C)cc21` (centres unmarked), the EC50 with HCV replicon cells (setting [1]) fell in the range of 1 to 500 nM. In addition, the half-maximal inhibitory concentration (IC50) at HCV NS5B (setting [2]) is 1 to 500 nM.
For the compound `COc1ccc2c(c1)C1CC1(CC(=O)N1C3CCC1CN(C)C3)Cn1c-2c(C2CCCCC2)c2ccc(C(=O)NS(=O)(=O)N(C)C)cc21` (centres unmarked), the EC50 in the assay with HCV replicon cells is 1 to 500 nM. Also, the half-inhibitory concentration (IC50) at HCV NS5B is over 120 nM.
On to `COc1ccc2c(c1)C1CC1(CC(=O)N1C[C@@H](C)O[C@H](C)C1)Cn1c-2c(C2CCCCC2)c2ccc(C(=O)NS(=O)(=O)N(C)C)cc21` (some centres unmarked), for which, in the assay on HCV replicon cells (setting [1]), the EC50 lay within 1 to 500 nM. The IC50 at HCV NS5B (setting [2]) was 1 to 500 nM.
For `COc1ccc2c(c1)C1CC1(CC(=O)N1CCOCC1)Cn1c-2c(C2CCCCC2)c2ccc(C(=O)NS(=O)(=O)N(C)C)cc21` (centres unmarked), the half-maximal effective concentration (EC50) in the assay on HCV replicon cells (setting [1]) is 1 to 500 nM. In addition, the IC50 at HCV NS5B (setting [2]) was in the range of 1 to 500 nM.
For the compound `COC(=O)CC12CC1c1cc(OC)ccc1-c1c(C3CCCCC3)c3ccc(C(=O)NS(=O)(=O)N(C)C)cc3n1C2` (centres unmarked), the concentration giving a half-maximal response (EC50) in the assay with HCV replicon cells (setting [1]) was over 120 nM. Besides, on HCV NS5B (setting [2]), the IC50 fell in the range of 1 to 500 nM.
For the compound `COc1ccc2c(c1)C1CC1(CC(=O)O)Cn1c-2c(C2CCCCC2)c2ccc(C(=O)NS(=O)(=O)N(C)C)cc21` (centres unmarked), the EC50 in the assay on HCV replicon cells (setting [1]) was 500 to 1000 nM. On HCV NS5B (setting [2]), the IC50 was in the range of 1 to 500 nM.
For `COC(=O)CC12CC1c1cc(OC)ccc1-c1c(C3CCCCC3)c3ccc(C(=O)O)cc3n1C2` (centres unmarked) the same measures were 1 to 500 nM and 1 to 500 nM.
